`Cc1cccc(-c2nscc2C(=O)O)c1` showed a melting point of 144 to 146 °C.
With `O=C(O)c1cn(C2CC2)c2cc(N3CC(O)C3)c(F)cc2c1=O` the melting point was 296 to 298 °C.
`COc1ccc(N2CCN(c3c(C)c(C)c4c(c3C)CC(C)(CN3CCC5(CC3)OCCO5)O4)CC2)cc1` (stereo not given) showed a melting point of 165 to 167 °C.
In the case of `C=Cc1cc(Cl)cc2c1OC(C(F)(F)F)C(C(=O)O)=C2` (stereo not given), the melting point is reported as 183 to 186 °C.
`COC(c1cc2c3c(c1)c(C)cc(=O)n3CC2)(C(F)(F)F)C(F)(F)F` gave a melting point of 242 to 243 °C.
With `CCc1ccccc1S(=O)(=O)N(OCCF)C(=O)n1nc(C)n(C2CC2)c1=O` the melting point was 147 °C.
`Cc1cccc(OC2CCN(CCc3c[nH]c4ccccc34)CC2)c1` showed a melting point of 145 to 146 °C.
`CCCCCCCCn1c(=O)c2c(N3CCN(C)CC3)cc(Cl)cc2n(Cc2ccccc2)c1=O` gave a melting point of 78 to 80 °C.
In the case of `CCC(C)(OCc1nn(Cc2ccccc2)c2ccccc12)C(=O)O` (stereo not given), the melting point is reported as 66 to 67 °C.
Work on `CC(C)(CCCC(=O)O)c1ccc(O)c(C(=O)O)c1` yielded a melting point of 136 to 138 °C.
`CC(C)(C)OC(=O)N[C@H](CC(=O)OCc1ccccc1)C(=O)N[C@H](COC(=O)OCc1ccccc1)c1ccccc1` gave a melting point of 105 to 106 °C.
With `CN(C)CCOc1ccc2[nH]c(C(=O)N3CC(CCl)c4c3cc([N+](=O)[O-])c3cc(S(C)(=O)=O)ccc43)cc2c1` (stereo not given) the melting point was 250 to 252 °C.
Work on `CC(C)CC(=O)Nc1ccc(Cl)c(-c2ccnc3c(C(=O)c4cccs4)cnn23)c1` yielded a melting point of 162 to 165 °C.
For `Cc1nc(NC(=O)NC(=O)c2c(F)cccc2F)ccc1-c1ccccc1`, the melting point was 206 to 208 °C.
In the case of `CN(C(=O)c1cnn(C)c1C(=O)Nc1ccc2nc(-c3cccnc3)nn2c1)C1CC1`, the melting point is reported as 237 °C.
In the case of `C1=Cc2ccccc2C2(CO2)c2ccccc21`, the melting point is reported as 90 to 91 °C.
With `N=C(N)Nc1nc(-c2nc(N)n[nH]2)cs1` the melting point was 173 to 175 °C.
In the case of `Cc1csc(NC(=S)Nc2cc(Cl)ccc2C)n1`, the melting point is reported as 188 °C.
In the case of `COc1nc2ccccc2cc1N(C(=O)N1CCN(c2cc(C)cc(C)c2)CC1)C(C)C`, the melting point is reported as 114 to 115 °C.
Compound `CCCS(=O)c1ncc(C(F)(F)F)cc1Cl` (stereo not given) has a melting point of 51 to 53 °C.
`CC(C)(C)CC(C)(C)C(CCC(=O)OO)CC(=O)OO` (stereo not given) showed a melting point of 60 to 62 °C.
`c1ccc(CN2CCN(CC3CCc4ccccc4O3)CC2)cc1` (stereo not given) showed a melting point greater than 230 °C.
In the case of `COc1ccc(S(=O)(=O)N2CCc3cccc(-c4ccc(C=CC(=O)NO)cc4)c32)cc1`, the melting point is reported as 200 to 201 °C.
In the case of `COc1c(CN2CCNC2=C[N+](=O)[O-])cc(C)nc1[N+](=O)[O-]`, the melting point is reported as 177 to 181 °C.
For `CC(=O)OCC(=O)c1cc2c(s1)CCC1CC(=O)N(c3ccc(C)cc3)N=C21` (stereo not given), the melting point was 144 to 145 °C.
Compound `COc1cc(C(=O)N2CCN(C(=O)C3=Cc4cc(O)c(O)cc4CCC3)CC2)cc(OC)c1OC` has a melting point of 206 to 207 °C.
`CC1CC2(C)C(CCC3C4CCC(C5(C)OCCO5)C4(C)CC(=O)C32)CC1O` (stereo not given) showed a melting point of 167 to 168 °C.
Work on `CN1CCN(c2ncnc3oc(-c4ccccc4)c(-c4ccc(F)cc4)c23)CC1` yielded a melting point of 143 to 144 °C.
In the case of `N#CCCNC(=O)c1n[nH]cc1NC(=O)c1ccc2c(c1)CCO2`, the melting point is reported as 206 to 207 °C.
`CC(C)(C)c1cc(-c2csc(C3(N4CCOCC4)CCOCC3)n2)cc(C(C)(C)C)c1O` gave a melting point of 172 to 174 °C.
`CN1CCN(c2ccccc2C=C2CCCN(c3ccc(Cl)c(Cl)c3)C2=O)CC1` showed a melting point of 138 to 140 °C.
Compound `O=C(Cl)c1cc2ccccc2[nH]1` has a melting point of 120 °C.
Compound `CNc1nc(Cl)nc2c(Cl)ncnc12` has a melting point of 196 to 197 °C.
In the case of `CCCCc1nc2cccc(C(=O)OCCO)c2n1Cc1ccc(-c2ccccc2-c2nnn[nH]2)cc1`, the melting point is reported as 145 to 147 °C.
Compound `O=C(O)CNC(=O)C=C(c1ccc(Cl)cc1)c1ccc(Cl)cc1` has a melting point of 166 to 168 °C.
Work on `CCC(CC)C(c1ccnn1-c1ccccc1)N(C)S(=O)(=O)c1ccc(Cl)c(Cl)c1` (stereo not given) yielded a melting point of 102 to 104 °C.
Compound `ON=C(c1ccc(F)cc1)c1cccc2nc(N[C@@H]3CCc4ccccc43)ccc12` has a melting point of 184 °C.
For `Cc1nnc(-c2ccc3occ(-c4cc(F)ccc4F)c3c2)o1`, the melting point was 143 to 144 °C.
Work on `CC1=C(C(=O)OC(CN2CCCCC2)c2ccccc2)C(c2cccc([N+](=O)[O-])c2)n2nccc2N1` (stereo not given) yielded a melting point of 92 to 93 °C.
`COCn1nnc(NC(=O)C2c3ccccc3Oc3ccccc32)n1` showed a melting point of 221 to 222 °C.
`COC(=O)c1ccccc1OCCCn1c(C(=O)C2CCN(CCC3(c4ccccc4)CCN(C(=O)c4cc(OC)c(OC)c(OC)c4)C3)CC2)nc2ccccc21` (stereo not given) gave a melting point of 74 to 80 °C.
In the case of `CCCOc1c2cc(F)c(F)cc2nc2c1c(C)nn2-c1ccccn1`, the melting point is reported as 162 to 163 °C.
For `CCN(CC)C(=O)c1ccc(C(=C2CCNCC2)c2cccc(OC)c2)cc1`, the melting point was greater than 90 °C.
`CC(C)c1nc(COCc2ccccc2)n(CC(C)(C)O)c1Sc1cc(Cl)cc(Cl)c1` showed a melting point of 181 to 182 °C.
Work on `NC(=O)c1ccc2c(c1)C(=C(Cl)Cl)OC(=C(Cl)Cl)O2` yielded a melting point of 217 to 218 °C.
For `CCCCCCCCCCCCCCCCCCN(C)C(=O)c1ccc(Cl)c([N+](=O)[O-])c1`, the melting point was 55 to 56 °C.
`COC(=O)/C=C/c1occc(=O)c1OCC(=O)OC(C)(C)C` gave a melting point of 115 to 116 °C.
In the case of `CC(=O)Nc1cc([N+](=O)[O-])c(F)cc1Cl`, the melting point is reported as 158 to 160 °C.
`O=C(c1ccc(-c2ccccc2)cc1)N1Cc2cccn2Cc2ncccc21` gave a melting point of 171 to 172 °C.
In the case of `Cc1nc(C)c(Cl)c(NCc2nccc(CNCCO)c2Cl)n1`, the melting point is reported as 162 to 165 °C.
